Legend:
Experiment in all cases: microbe, parasite or virus in culture
[1] = tested on: B/Victoria-lineage viruses; assay type: cell-based; conditions: Influenza B virus, read-out: median IC50
[2] = tested on: A(H1N1)pdm09 viruses; assay type: cell-based, influenza A(H1N1)pdm09 virus; conditions: Influenza A virus, H1N1, read-out: median IC50
[3] = tested on: B/Yamagata-lineage viruses; assay type: cell-based; conditions: Influenza B virus, read-out: median IC50
[4] = tested on: A(H3N2) viruses; assay type: cell-based; conditions: Influenza A virus, H3N2, read-out: median IC50

Q: What does the source list for `O=C1c2c(O)c(=O)ccn2N([C@@H]2c3ccccc3SCc3c2ccc(F)c3F)[C@@H]2COCCN12` [Baloxavir, baloxavir acid]?
A: IC50 [1]: 3.42 nM; IC50 [2]: 0.28 nM; IC50 [3]: 2.43 nM; IC50 [4]: 0.16 nM
